Results taken from the supplement of paper PMC10307832.

Assays:
Test in all cases: relative viability (nuclei count vs DMSO), 5 days (fraction); higher = more cells survive
[1] = tested on: EKVX
Procedure, shortened: (§1)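 Lung cancer cell lines, seeded in 1536-well plates, were treated the following day by pin tool with a single drug or with five library-drug doses (not always all listed) in √10 steps on top of a fixed anchor-drug dose. Cells were fixed and nuclei stained in one step after 5 days, and nuclei were counted. Relative viability is the nuclei count for treated wells divided by that for vehicle wells, reported as medians of duplicate plates.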

[2] = tested on: LCLC-97TM1
Procedure, shortened: as §1

[3] = tested on: NCI-H1437
Procedure, shortened: as §1

[4] = tested on: NCI-H1650
Procedure, shortened: as §1

[5] = tested on: NCI-H1666
Procedure, shortened: as §1

[6] = tested on: NCI-H1792
Procedure, shortened: as §1

[7] = tested on: NCI-H1915
Procedure, shortened: as §1

[8] = tested on: NCI-H1975
Procedure, shortened: as §1

[9] = tested on: NCI-H23
Procedure, shortened: as §1

[10] = tested on: NCI-H322M
Procedure, shortened: as §1

[11] = tested on: NCI-H358
Procedure, shortened: as §1

[12] = tested on: NCI-H441
Procedure, shortened: as §1

[13] = tested on: NCI-H460
Procedure, shortened: as §1

[14] = tested on: NCI-H520
Procedure, shortened: as §1

[15] = tested on: NCI-H596
Procedure, shortened: as §1

[16] = tested on: NCI-H647
Procedure, shortened: as §1

[17] = tested on: NCI-H661
Procedure, shortened: as §1

[18] = tested on: NCI-H727
Procedure, shortened: as §1

[19] = tested on: NCI-H838
Procedure, shortened: as §1

[20] = tested on: PC-3 [JPC-3]
Procedure, shortened: as §1

[21] = tested on: SK-LU-1
Procedure, shortened: as §1

Which relative viability ([1]; first compound 0.2 µM) does the source give for Cc1csc(=NC2CCCCC2)n1/N=C/c1ccc(O)c(O)c1O [MIM1] + CS(=O)(=O)N1CCN(Cc2cc3nc(-c4cccc5[nH]ncc45)nc(N4CCOCC4)c3s2)CC1 [Pictilisib] (partner 1 µM) here?
Its relative viability is 0.477.

What about the relative viability ([1]; first compound 0.6325 µM) of the same compound?
The relative viability was 0.365.

What about the relative viability ([1]; first compound 2 µM) of the same compound?
The relative viability was 0.463.

And the relative viability ([1]; first compound 6.325 µM)?
The relative viability was 0.322.

What about the relative viability ([1]; first compound 20 µM) of the same compound?
Its relative viability is 0.351.

What about the relative viability ([2]; first compound 0.2 µM) of the same compound?
Its relative viability is 0.22.

What about the relative viability ([2]; first compound 0.6325 µM) of the same compound?
Its relative viability is 0.178.

What about the relative viability ([2]; first compound 2 µM) of the same compound?
The relative viability was 0.228.

And the relative viability ([2]; first compound 6.325 µM)?
Its relative viability is 0.18.

What about the relative viability ([2]; first compound 20 µM) of the same compound?
The relative viability was 0.108.

And the relative viability ([3]; first compound 0.2 µM)?
Its relative viability is 0.482.

What about the relative viability ([3]; first compound 0.6325 µM) of the same compound?
Its relative viability is 0.382.

What about the relative viability ([3]; first compound 2 µM) of the same compound?
Its relative viability is 0.516.

What about the relative viability ([3]; first compound 6.325 µM) of the same compound?
The relative viability was 0.269.

What about the relative viability ([3]; first compound 20 µM) of the same compound?
Its relative viability is 0.128.

And the relative viability ([4]; first compound 0.2 µM)?
The relative viability was 0.595.

What about the relative viability ([4]; first compound 0.6325 µM) of the same compound?
The relative viability was 0.545.

And the relative viability ([4]; first compound 2 µM)?
Its relative viability is 0.434.

And the relative viability ([4]; first compound 6.325 µM)?
The relative viability was 0.176.

And the relative viability ([4]; first compound 20 µM)?
The relative viability was 0.167.

What about the relative viability ([5]; first compound 0.2 µM) of the same compound?
The relative viability was 0.605.

What about the relative viability ([5]; first compound 0.6325 µM) of the same compound?
The relative viability was 0.398.

And the relative viability ([5]; first compound 2 µM)?
The relative viability was 0.476.

What about the relative viability ([5]; first compound 6.325 µM) of the same compound?
The relative viability was 0.422.

What about the relative viability ([5]; first compound 20 µM) of the same compound?
Its relative viability is 0.311.

And the relative viability ([6]; first compound 0.2 µM)?
Its relative viability is 0.296.

What about the relative viability ([6]; first compound 0.6325 µM) of the same compound?
The relative viability was 0.293.

What about the relative viability ([6]; first compound 2 µM) of the same compound?
Its relative viability is 0.26.

What about the relative viability ([6]; first compound 6.325 µM) of the same compound?
Its relative viability is 0.252.

What about the relative viability ([6]; first compound 20 µM) of the same compound?
Its relative viability is 0.221.

What about the relative viability ([7]; first compound 0.2 µM) of the same compound?
Its relative viability is 1.

And the relative viability ([7]; first compound 0.6325 µM)?
The relative viability was 0.606.

And the relative viability ([7]; first compound 2 µM)?
The relative viability was 0.883.

What about the relative viability ([7]; first compound 6.325 µM) of the same compound?
Its relative viability is 0.708.

And the relative viability ([7]; first compound 20 µM)?
Its relative viability is 0.477.

What about the relative viability ([8]; first compound 0.2 µM) of the same compound?
Its relative viability is 0.275.

And the relative viability ([8]; first compound 0.6325 µM)?
The relative viability was 0.312.

What about the relative viability ([8]; first compound 2 µM) of the same compound?
The relative viability was 0.251.

And the relative viability ([8]; first compound 6.325 µM)?
Its relative viability is 0.209.

What about the relative viability ([8]; first compound 20 µM) of the same compound?
Its relative viability is 0.312.

What about the relative viability ([9]; first compound 0.2 µM) of the same compound?
Its relative viability is 0.563.

What about the relative viability ([9]; first compound 2 µM) of the same compound?
Its relative viability is 0.517.

And the relative viability ([9]; first compound 6.325 µM)?
The relative viability was 0.467.

What about the relative viability ([9]; first compound 20 µM) of the same compound?
The relative viability was 0.192.

What about the relative viability ([10]; first compound 0.2 µM) of the same compound?
Its relative viability is 0.565.

What about the relative viability ([10]; first compound 0.6325 µM) of the same compound?
The relative viability was 0.497.

And the relative viability ([10]; first compound 2 µM)?
Its relative viability is 0.511.

What about the relative viability ([10]; first compound 6.325 µM) of the same compound?
The relative viability was 0.477.

What about the relative viability ([10]; first compound 20 µM) of the same compound?
Its relative viability is 0.698.

And the relative viability ([11]; first compound 0.2 µM)?
Its relative viability is 0.309.

What about the relative viability ([11]; first compound 0.6325 µM) of the same compound?
The relative viability was 0.271.

What about the relative viability ([11]; first compound 2 µM) of the same compound?
The relative viability was 0.254.

What about the relative viability ([11]; first compound 6.325 µM) of the same compound?
Its relative viability is 0.247.

And the relative viability ([11]; first compound 20 µM)?
Its relative viability is 0.262.

What about the relative viability ([12]; first compound 0.2 µM) of the same compound?
Its relative viability is 0.541.

And the relative viability ([12]; first compound 0.6325 µM)?
Its relative viability is 0.468.

What about the relative viability ([12]; first compound 2 µM) of the same compound?
Its relative viability is 0.539.

What about the relative viability ([12]; first compound 6.325 µM) of the same compound?
Its relative viability is 0.382.

And the relative viability ([12]; first compound 20 µM)?
Its relative viability is 0.147.

What about the relative viability ([13]; first compound 0.2 µM) of the same compound?
Its relative viability is 0.315.

And the relative viability ([13]; first compound 0.6325 µM)?
The relative viability was 0.348.

And the relative viability ([13]; first compound 2 µM)?
Its relative viability is 0.249.

And the relative viability ([13]; first compound 6.325 µM)?
The relative viability was 0.329.

And the relative viability ([13]; first compound 20 µM)?
Its relative viability is 0.274.

What about the relative viability ([14]; first compound 0.2 µM) of the same compound?
Its relative viability is 0.302.

What about the relative viability ([14]; first compound 0.6325 µM) of the same compound?
Its relative viability is 0.287.

What about the relative viability ([14]; first compound 2 µM) of the same compound?
Its relative viability is 0.295.

And the relative viability ([14]; first compound 6.325 µM)?
Its relative viability is 0.235.

And the relative viability ([14]; first compound 20 µM)?
Its relative viability is 0.246.

What about the relative viability ([15]; first compound 0.2 µM) of the same compound?
The relative viability was 0.419.

And the relative viability ([15]; first compound 0.6325 µM)?
Its relative viability is 0.457.

And the relative viability ([15]; first compound 2 µM)?
The relative viability was 0.406.

And the relative viability ([15]; first compound 6.325 µM)?
Its relative viability is 0.352.

What about the relative viability ([15]; first compound 20 µM) of the same compound?
Its relative viability is 0.402.

And the relative viability ([16]; first compound 0.2 µM)?
The relative viability was 0.379.

And the relative viability ([16]; first compound 0.6325 µM)?
The relative viability was 0.578.

What about the relative viability ([16]; first compound 6.325 µM) of the same compound?
Its relative viability is 0.42.

What about the relative viability ([16]; first compound 20 µM) of the same compound?
Its relative viability is 0.191.

What about the relative viability ([17]; first compound 0.2 µM) of the same compound?
Its relative viability is 0.388.

And the relative viability ([17]; first compound 0.6325 µM)?
The relative viability was 0.367.

What about the relative viability ([17]; first compound 2 µM) of the same compound?
The relative viability was 0.357.

What about the relative viability ([17]; first compound 6.325 µM) of the same compound?
Its relative viability is 0.38.

And the relative viability ([17]; first compound 20 µM)?
Its relative viability is 0.345.

And the relative viability ([18]; first compound 0.2 µM)?
The relative viability was 0.415.

What about the relative viability ([18]; first compound 0.6325 µM) of the same compound?
Its relative viability is 0.352.

And the relative viability ([18]; first compound 2 µM)?
Its relative viability is 0.35.

And the relative viability ([18]; first compound 6.325 µM)?
The relative viability was 0.355.

And the relative viability ([18]; first compound 20 µM)?
Its relative viability is 0.122.

What about the relative viability ([19]; first compound 0.2 µM) of the same compound?
The relative viability was 0.415.

And the relative viability ([19]; first compound 0.6325 µM)?
Its relative viability is 0.468.

What about the relative viability ([19]; first compound 2 µM) of the same compound?
Its relative viability is 0.397.

What about the relative viability ([19]; first compound 6.325 µM) of the same compound?
Its relative viability is 0.357.

And the relative viability ([19]; first compound 20 µM)?
Its relative viability is 0.2.

And the relative viability ([20]; first compound 0.2 µM)?
The relative viability was 0.759.

What about the relative viability ([20]; first compound 0.6325 µM) of the same compound?
The relative viability was 0.763.

And the relative viability ([20]; first compound 2 µM)?
Its relative viability is 0.707.

And the relative viability ([20]; first compound 6.325 µM)?
Its relative viability is 0.619.

What about the relative viability ([20]; first compound 20 µM) of the same compound?
The relative viability was 0.459.

What about the relative viability ([21]; first compound 0.2 µM) of the same compound?
The relative viability was 0.636.

What about the relative viability ([21]; first compound 0.6325 µM) of the same compound?
The relative viability was 0.594.

And the relative viability ([21]; first compound 2 µM)?
The relative viability was 0.625.

And the relative viability ([21]; first compound 6.325 µM)?
The relative viability was 0.466.

What about the relative viability ([21]; first compound 20 µM) of the same compound?
The relative viability was 0.354.
